Patent US20150309031A2, “COMPOSITIONS AND METHODS FOR PROGNOSIS AND TREATMENT OF CANCER” (NOVAZOI THERANOSTICS, priority 2013, published 2015)

Legend:
Assay type in all cases: cell-based
[1] = system: adult human dermal fibroblasts (HDF); assay: subG1 (hypodiploid) fraction by flow cytometry, HDFs
MCF10A cells = assay: Centrosome amplification (CA) by microscopy, MCF10A cells; settings: interphase and mitotic cells, over 24 h
Protocol: Consequently, CA was assessed in cultures treated with different concentrations of declustering drugs for 6, 12, 18, or 24 h and untreated controls via microscopy. Centrosomes were identified by γ-tubulin and centrin-2 colocalization at discrete foci. […] The peak percent CA detected over 24 h is shown in FIG. 6 (only statistically significant (P<0.05) increases over control values are represented in the Figures). Representative confocal micrographs of CA in interphase and mitotic cells, both control and drug treated, are depicted in FIG. 7. No significant correlations between the degree of CA (FIG. 5A) and the expression levels of PLK4, Cyclin E, and Aurora A were found (FIG. 4).
To determine whether the CA-inducing activity of declustering drugs is restricted to cancer cells, two non-malignant cell lines, mammary fibrocystic (MCF10A) cells and adult human dermal fibroblasts were treated with these drugs. Neither one of RBN, GF or PJ induced CA or cell death (Table 8) in these cell lines. […] In comparison, 10 and 25 μM RBN increased peak CA over controls in interphase cells (p<0.001 and p=0.001, respectively), with the lower concentration dramatically augmenting peak CA to 56% of cells versus 15% for the higher dose (FIG. 9B). Only 10 but not 25 μM RBN increased the extent of CA in mitotic cells, and this upregulation was only slight (10%, p=0.041).

HeLa cells [2] = assay: subG1 (hypodiploid) fraction by flow cytometry, HeLa cells
Protocol: (§1) Trypsinized cells were resuspended in PBS at 10^6 cells/ml. Cells were then fixed by addition of ice-cold 70% ethanol. Ethanol-fixed cells were kept overnight at 4° C. before staining. Cells were pelleted and washed twice with PBS. Cell pellets were incubated for an hour at room temperature with mouse anti-MPM-2 antibody (Millipore, Mass., USA), followed by 1 h incubation with Alexa-488 anti-mouse secondary antibody (Life Technologies, NY, USA). Finally cells were washed, pelleted and resuspended in propidium iodide-containing isotonic buffer (0.1 mg/mL) and 0.5% Triton X-100. Cell cycle distribution was determined by flow cytometry using an LSR Fortessa Flow cytometer (BD Biosciences, CA, USA) and analyzed using Flowjo software (Tree Star, OR, USA). […] The duration, highest degree, and rapidity of onset of MA varied between drugs, drug concentrations, and cell lines (FIGS. 2A, 2B). In general, the maximum MA achieved was less pronounced in Nos- and PJ-treated cells (FIGS. 2A, 2B). Drug-induced onset of MA was corroborated by substantial increases in cyclin B1 levels in all cell lines (FIG. 2C). […] Instances where the subG1 fraction was elevated without cleaved caspase-3 may either represent caspase-independent cell death or the presence of hypodiploid cells whose fate is unclear.

231 cells = assay: Centrosome amplification (CA) by microscopy, 231 cells; settings: for maximum extent of CA in mitotic cells: over 24 h
Protocol: (§2) Consequently, CA was assessed in cultures treated with different concentrations of declustering drugs for 6, 12, 18, or 24 h and untreated controls via microscopy. […] The peak percent CA detected over 24 h is shown in FIG. 6 (only statistically significant (P<0.05) increases over control values are represented in the Figures). Representative confocal micrographs of CA in interphase and mitotic cells, both control and drug treated, are depicted in FIG. 7. […] To better understand the “potency” of drug-induced CA with time, the average fold change in CA over controls over 24 h was assessed (FIG. 5A), whereby the extent of CA across time points (i.e., 6, 12, 18, and 24 h) was averaged and then divided by the extent of CA in control (i.e., 0 h). […] For Nos and BN, there was no major difference in CA levels in interphase versus mitotic cells.

HeLa cells [3] = assay: Centrosome amplification (CA) by microscopy, HeLa cells
Protocol: as §2

[4] = system: mammary fibrocystic (MCF10A) cells; assay: subG1 (hypodiploid) fraction by flow cytometry, MCF10A cells; settings: for Peak subG1 percent over 48 h: MCF10A
MDA-MB-231 (231) cells = assay: subG1 (hypodiploid) fraction by flow cytometry, 231 cells
Protocol: as §1

reduced bromonoscapine [RBN]
Peak subG1 percent over 48 h ([1]; 10 μM): 35.9% | Peak subG1 percent over 48 h ([1]; 25 μM): 39.9% | change of CA over control levels (in words) (MCF10A cells): significantly increased the peak extent of CA in interphase and mitotic MCF10A cells | Peak subG1 percent over 48 h (HeLa cells [2]; 10 μM): 54.1% | maximum subG1 fraction relative to control (HeLa cells [2]; 10 μM): 9 × control | Peak subG1 percent over 48 h (HeLa cells [2]; 25 μM): 75.6% | change of peak CA extent over control (231 cells; 25 μM): only slightly more than doubled the peak CA extent | final extent of CA (231 cells; 25 μM): around 90% | maximum extent of CA in interphase cells (231 cells; 10 μM): 31% | maximum extent of CA in interphase cells (231 cells; 25 μM): 87% | fold increase of CA over controls, mitotic cells (231 cells; 10 μM): ~2.5 fold | maximum extent of CA in mitotic cells (231 cells; 10 μM): 56% | fold increase of CA over controls, mitotic cells (231 cells; 25 μM): ~2.0 fold | maximum extent of CA in mitotic cells (231 cells; 25 μM): 96% | peak extent of CA in interphase cells (HeLa cells [3]; interphase, 10 μM): 30.7% | peak / final extent of CA in interphase cells (HeLa cells [3]; interphase, 25 μM): 48.1% | cells having CA, mitotic cells (HeLa cells [3]; 10 μM): 78% | fold increase of CA, mitotic cells (HeLa cells [3]; 10 μM): approximately 40 fold | cells having CA, mitotic cells (HeLa cells [3]; 25 μM): 42% | fold increase of CA, mitotic cells (HeLa cells [3]; 25 μM): ~20 fold | change of peak subG1 percent compared to controls (in words) ([4]; MCF10A cells): did increase peak SubG1 in MCF10A cells compared to controls | Peak subG1 percent over 48 h ([4]; 10 μM): 36.4% | Peak subG1 percent over 48 h ([4]; 25 μM): 44.0% | Peak subG1 percent over 48 h (MDA-MB-231 (231) cells; 10 μM): 47.0% | Peak subG1 percent over 48 h (MDA-MB-231 (231) cells; 25 μM): 80.8% | maximum subG1 fraction relative to control (MDA-MB-231 (231) cells; 25 μM): 25 × control
